According to patent US20250154144A1 (CHILDREN'S HOSPITAL MEDICAL CENTER, priority 2021, published 2025):

Legend:
IRAK1 = IRAK1 (Homo sapiens, UniProt P51617); experiment: RBC HotSpot Kinase Assay, IRAK1; details: IRAK1 IC50
FLT3 = target: T1, FLT3 (Homo sapiens, UniProt P36888); experiment: RBC HotSpot Kinase Assay, FLT3; details: FLT3 IC50
T1 sequence (P36888 610-943 limits assumed): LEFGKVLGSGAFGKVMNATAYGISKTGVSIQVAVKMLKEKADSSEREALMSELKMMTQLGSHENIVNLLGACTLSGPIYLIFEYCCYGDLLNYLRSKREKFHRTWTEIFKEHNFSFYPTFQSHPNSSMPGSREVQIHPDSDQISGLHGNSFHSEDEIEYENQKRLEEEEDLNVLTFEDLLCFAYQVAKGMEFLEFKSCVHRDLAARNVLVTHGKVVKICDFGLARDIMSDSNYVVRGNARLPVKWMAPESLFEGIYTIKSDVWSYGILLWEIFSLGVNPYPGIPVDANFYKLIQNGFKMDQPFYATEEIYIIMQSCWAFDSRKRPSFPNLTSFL

IRAK4 = target: T2, IRAK4 (Homo sapiens, UniProt Q9NWZ3); experiment: RBC HotSpot Kinase Assay, IRAK4; details: IRAK4 IC50
T2 sequence (Q9NWZ3 1-460): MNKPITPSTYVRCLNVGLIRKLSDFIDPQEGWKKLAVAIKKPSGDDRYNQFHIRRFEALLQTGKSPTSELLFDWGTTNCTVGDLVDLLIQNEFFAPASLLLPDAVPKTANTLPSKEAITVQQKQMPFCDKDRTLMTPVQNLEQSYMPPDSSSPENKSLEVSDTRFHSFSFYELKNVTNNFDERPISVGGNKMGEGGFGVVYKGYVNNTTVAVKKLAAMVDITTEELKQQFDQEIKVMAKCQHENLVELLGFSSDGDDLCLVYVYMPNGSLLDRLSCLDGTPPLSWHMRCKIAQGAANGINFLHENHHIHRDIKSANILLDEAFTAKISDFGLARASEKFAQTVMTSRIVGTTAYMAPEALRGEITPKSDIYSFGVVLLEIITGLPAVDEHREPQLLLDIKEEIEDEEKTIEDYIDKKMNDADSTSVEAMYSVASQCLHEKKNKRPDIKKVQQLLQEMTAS

Sequence of IRAK1 (P51617 whole entry): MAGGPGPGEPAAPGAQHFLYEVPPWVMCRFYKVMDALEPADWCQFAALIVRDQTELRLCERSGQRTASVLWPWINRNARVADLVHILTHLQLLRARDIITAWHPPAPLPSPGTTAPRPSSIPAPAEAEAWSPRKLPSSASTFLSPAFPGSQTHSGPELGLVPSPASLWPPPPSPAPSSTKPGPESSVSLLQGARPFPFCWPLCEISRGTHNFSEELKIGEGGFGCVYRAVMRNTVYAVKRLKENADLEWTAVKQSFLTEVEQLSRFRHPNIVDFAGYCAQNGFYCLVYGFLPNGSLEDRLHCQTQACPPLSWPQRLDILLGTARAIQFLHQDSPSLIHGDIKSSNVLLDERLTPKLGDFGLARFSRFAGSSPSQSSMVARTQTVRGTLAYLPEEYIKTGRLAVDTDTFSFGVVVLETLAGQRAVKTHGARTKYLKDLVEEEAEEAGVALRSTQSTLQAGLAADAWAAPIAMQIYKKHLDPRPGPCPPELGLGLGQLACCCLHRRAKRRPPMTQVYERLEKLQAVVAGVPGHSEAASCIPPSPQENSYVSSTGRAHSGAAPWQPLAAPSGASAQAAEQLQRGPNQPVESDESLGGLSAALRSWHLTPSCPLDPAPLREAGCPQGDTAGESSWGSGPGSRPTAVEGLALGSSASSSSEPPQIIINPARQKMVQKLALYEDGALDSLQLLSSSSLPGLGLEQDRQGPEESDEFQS

SMILES | IC50 (IRAK1) | IC50 (FLT3) | IC50 (IRAK4)
CC(C)(O)c1ccc2ncc(-c3cncc(N[C@@H]4CCCNC4)n3)n2c1 [Compound 17, (R)-2-(3-(6-(piperidin-3-ylamino)pyrazin-2-yl)imidazo[1,2-a]pyridin-6-yl)propan-2-ol] | 105 nM | 5 nM | 7 nM
COc1cc2ncc(-c3cncc(N[C@@H]4CCCNC4)n3)n2nc1C1CC1 [Compound 23, (R)-6-(6-cyclopropyl-7-methoxyimidazo[1,2-b]pyridazin-3-yl)-N-(piperidin-3-yl)pyrazin-2-amine] | 175 nM | < 0.5 nM | 1 nM
F[C@H]1CNC[C@@H]1Nc1nccc(-c2cnc3cc(OC4CC4)ccn23)n1 [Compound 37, 4-(7-cyclopropoxyimidazo [1,2-a]pyridin-3-yl)-N-((3S,4S)-4-fluoropyrrolidin-3-yl)pyrimidin-2-amine] | 13 nM | < 0.5 nM | 1 nM
CC(C)(O)c1ccc2ncc(-c3ccnc(N[C@H]4CNC[C@@H]4F)n3)n2c1 [Compound 40, 2-(3-(2-(((3S,4S)-4-fluoropyrrolidin-3-yl)amino)pyrimidin-4-yl)imidazo[1,2-a]pyridin-6-yl)propan-2-ol] | 79 nM | < 0.5 nM | 1 nM
CC(C)(O)c1ccc2ncc(-c3ccnc(N[C@@H]4CCCNC4)n3)n2c1 [Compound 41, (R)-2-(3-(2-(piperidin-3-ylamino)pyrimidin-4-yl)imidazo[1,2-a]pyridin-6-yl)propan-2-ol] | 124 nM | 1 nM | 8 nM
COc1cc2ncc(-c3ccnc(N[C@H]4CNCC[C@@H]4F)n3)n2cc1C(C)(O)C(F)(F)F (stereo partly drawn) [Compound 60] | < 0.5 nM | < 0.5 nM | < 0.5 nM
